Reference: ChEMBL document CHEMBL5050844 (2019)

Key:
[1] = Induction of anti-CD3 antibodies-stimulated human T cell activation at 8 uM assessed fold increase in IL-2 secretion measured by ELISA assay; format: functional, T cell line
[2] = Induction of anti-CD3/CD28 antibodies-stimulated human T cell activation at 4 uM assessed fold increase in CD25 expression measured by ELISA assay; format: functional, T cell line
[3] = Induction of anti-CD3/CD28 antibodies-stimulated human T cell activation at 4 uM assessed fold increase in IL-2 secretion measured by ELISA assay; format: functional, T cell line
[4] = Induction of anti-CD3 antibodies-stimulated human T cell activation at 8 uM assessed fold increase in CD25 expression measured by ELISA assay; format: functional, T cell line
[5] = Induction of anti-CD3/CD28 antibodies-stimulated human T cell activation at 0.3 uM assessed fold increase in IL-2 secretion measured by ELISA assay; format: functional, T cell line
[6] = Induction of anti-CD3 antibodies-stimulated human T cell activation at 1 uM assessed fold increase in IL-2 secretion measured by ELISA assay; format: functional, T cell line
[7] = Induction of anti-CD3/CD28 antibodies-stimulated human T cell activation at 1 uM assessed fold increase in CD25 expression measured by ELISA assay; format: functional, T cell line
[8] = Induction of anti-CD3/CD28 antibodies-stimulated human T cell activation at 1 uM assessed fold increase in IL-2 secretion measured by ELISA assay; format: functional, T cell line
[9] = molecular target: E3 ubiquitin-protein ligase CBL-B (Homo sapiens, UniProt Q13191); assay: Inhibition of N-terminal Avi-tagged human CBL-B (36 to 427 residues) incubated with 60 nM Src kinase for 1.5 hrs followed by incubation with fluorescently labeled UbcH5B-Ub for 1 hr and measured by TR-FRET assay; format: single protein
E3 ubiquitin-protein ligase CBL-B, sequence (Q13191 whole entry, the tested form may be a part): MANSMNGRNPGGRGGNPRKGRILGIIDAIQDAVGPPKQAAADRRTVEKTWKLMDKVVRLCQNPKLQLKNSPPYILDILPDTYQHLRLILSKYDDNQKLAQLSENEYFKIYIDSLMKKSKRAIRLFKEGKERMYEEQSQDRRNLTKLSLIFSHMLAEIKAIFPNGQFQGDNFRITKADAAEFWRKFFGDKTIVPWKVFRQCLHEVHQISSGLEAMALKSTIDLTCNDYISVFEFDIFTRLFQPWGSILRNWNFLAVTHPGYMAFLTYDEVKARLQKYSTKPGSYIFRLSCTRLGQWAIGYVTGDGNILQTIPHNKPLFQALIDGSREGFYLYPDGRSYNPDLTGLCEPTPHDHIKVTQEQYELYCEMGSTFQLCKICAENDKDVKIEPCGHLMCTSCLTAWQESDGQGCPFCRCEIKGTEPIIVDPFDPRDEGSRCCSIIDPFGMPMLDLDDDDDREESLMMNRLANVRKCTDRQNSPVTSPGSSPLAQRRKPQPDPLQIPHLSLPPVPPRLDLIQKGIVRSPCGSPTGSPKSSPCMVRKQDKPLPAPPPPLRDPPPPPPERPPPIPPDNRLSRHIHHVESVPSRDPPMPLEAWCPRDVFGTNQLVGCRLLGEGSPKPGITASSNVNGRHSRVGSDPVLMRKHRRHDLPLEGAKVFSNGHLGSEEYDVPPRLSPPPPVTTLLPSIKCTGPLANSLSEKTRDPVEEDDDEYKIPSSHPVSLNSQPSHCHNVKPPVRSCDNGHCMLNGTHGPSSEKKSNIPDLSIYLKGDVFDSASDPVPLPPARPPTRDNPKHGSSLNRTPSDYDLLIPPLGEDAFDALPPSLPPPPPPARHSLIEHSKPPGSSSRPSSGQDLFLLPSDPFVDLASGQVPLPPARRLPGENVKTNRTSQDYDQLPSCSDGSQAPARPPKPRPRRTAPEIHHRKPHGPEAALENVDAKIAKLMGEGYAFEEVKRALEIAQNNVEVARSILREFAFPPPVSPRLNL

[10] = Induction of anti-CD3/CD28 antibodies-stimulated human T cell activation at 0.3 uM assessed fold increase in CD25 expression measured by ELISA assay; format: functional, T cell line
[11] = Induction of anti-CD3 antibodies-stimulated human T cell activation at 1 uM assessed fold increase in CD25 expression measured by ELISA assay; format: functional, T cell line

Row | Structure (SMILES) | IC50 [9] [µM] | fold change (FC) [1] | fold change (FC) [2] | fold change (FC) [3] | fold change (FC) [4] | fold change (FC) [5] | fold change (FC) [6] | fold change (FC) [7] | fold change (FC) [8] | fold change (FC) [10] | fold change (FC) [11]
1 | C[C@H](Sc1nncn1C)c1cccc(NC(=O)c2ccc(F)c(C3CC3)n2)c1 | < 0.1 | 0.101 | 1.01 | >=7.5 | >=1.001 | 1.01 | <=0.05 | <=1 | 2.51 | <=1 | 0.601
2 | Cc1cc(C(=O)Nc2cccc(C3(Cc4nncn4C)COC3)c2)nc(C2CC2)c1 | < 0.1 | >=0.201 | 1.51 | >=7.5 | >=1.001 | 5 | >=0.201 | 1.31 | >=7.5 | 1.31 | >=1.001
3 | C[C@H](Sc1nncn1C)c1cccc(NC(=O)c2cccc(C3CC3)n2)c1 | < 0.1 | 0.151 | 1.51 | 2.51 | 0.801 | 1.01 | 0.051 | 1.51 | 2.51 | 1.31 | <=0.6
4 | Cn1cnnc1CC(C)(C)c1cccc(NC(=O)c2cccc(C(F)(F)F)n2)c1 | < 0.1 | >=0.201 | 1.31 | >=7.5 | >=1.001 | 1.01 | >=0.201 | 1.01 | 2.51 | 1.01 | 0.801
5 | CC(=O)N1CCN(c2ccc3cnc(C(=O)Nc4cccc([C@H](C)Cc5nncn5C)c4)cc3c2)CC1.O=C(O)C(F)(F)F | < 0.1 | >=0.201 | 1.51 | >=7.5 | >=1.001 | 2.51 | >=0.201 | 1.01 | 5 | 1.01 | 0.601
6 | Cn1cnnc1CC1(c2cccc(N3Cc4c(cccc4C(F)(F)F)C3=O)c2)COC1 | < 0.1 | 0.101 | 1.31 | >=7.5 | >=1.001 | 1.01 | 0.051 | 1.01 | 2.51 | 1.01 | 0.801
7 | C[C@H](Cc1nncn1C)c1cc(NC2COC2)nc(N2Cc3c(cccc3C(F)(F)F)C2=O)c1 | < 0.1 | >=0.201 | 1.31 | 5 | >=1.001 | 1.01 | 0.051 | 1.01 | 1.01 | 1.01 | 0.801
8 | Cc1cc(C(=O)Nc2cccc([C@H](C)Sc3nncn3C)c2)nc(C(F)(F)F)c1 | < 0.1 | 0.101 | 1.01 | 2.51 | >=1.001 | 1.01 | <=0.05 | 1.01 | 1.01 | 1.01 | 0.601
9 | C[C@H](Cc1nncn1C)c1cccc(NC(=O)c2cc3cc(N4CCN(C)C(=O)C4)ccc3cn2)c1.O=C(O)C(F)(F)F | < 0.1 | >=0.201 | 1.51 | >=7.5 | >=1.001 | 5 | >=0.201 | 1.31 | 5 | 1.31 | <=0.6

Second part, led by results:

Row | IC50 [9] [µM] | Structure (SMILES) | fold change (FC) [1] | fold change (FC) [2] | fold change (FC) [3] | fold change (FC) [4] | fold change (FC) [5] | fold change (FC) [6] | fold change (FC) [7] | fold change (FC) [8] | fold change (FC) [10] | fold change (FC) [11]
10 | < 0.1 | C[C@H](Cc1nncn1C)c1cccc(N2Cc3c(cc([C@H](C)N4CC[C@H](F)C4)cc3C(F)(F)F)C2=O)c1 | >=0.201 | 1.31 | >=7.5 | >=1.001 | >=7.5 | >=0.201 | 1.31 | >=7.5 | 1.31 | >=1.001
11 | < 0.1 | C[C@H](Cc1nncn1C)c1cccc(N2Cc3c(cc(C(=O)N4CC[C@H](O)C4)cc3C3CC3)C2=O)c1 | 0.101 | 1.31 | 2.51 | >=1.001 | 1.01 | 0.051 | 1.01 | 2.51 | 1.01 | 0.801
12 | < 0.1 | C[C@H](c1cc2c(c(C(F)(F)F)c1)CN(c1cccc([C@@](C)(F)C(F)(F)c3nncn3C)c1)C2=O)N1CC[C@H](F)C1 | >=0.201 | 1.51 | >=7.5 | >=1.001 | 2.51 | >=0.201 | 1.31 | >=7.5 | 1.01 | >=1.001
13 | < 0.1 | Cn1cnnc1[C@H](F)C(C)(F)c1cccc(N2Cc3c(cccc3C(F)(F)F)C2=O)c1 (single isomer, unassigned) | 0.101 | 1.01 | 1.01 | 0.801 | 1.01 | <=0.05 | 1.01 | 1.01 | 1.01 | 0.601
14 | < 0.1 | C[C@@H](c1cc2c(c(C(F)(F)F)c1)CN(c1cccc(C3(Cc4nncn4C)COC3)c1)C2=O)N1CCC(F)(F)C1 | >=0.201 | 1.31 | >=7.5 | >=1.001 | 2.51 | 0.151 | 1.31 | >=7.5 | 1.31 | >=1.001
15 | < 0.1 | C[C@H](c1cc2c(c(C(F)(F)F)c1)CN(c1cccc(C3(Cc4nncn4C)COC3)c1)C2=O)N1CCC(F)(F)C1 | >=0.201 | 1.31 | >=7.5 | >=1.001 | 2.51 | 0.151 | 1.31 | >=7.5 | 1.01 | >=1.001
16 | < 0.1 | Cn1cnnc1CC1(c2cccc(N3Cc4c(cc(CN5CC(C)(C#N)C5)cc4C(F)(F)F)C3=O)c2)COC1 | 0.051 | 1.51 | >=7.5 | <=0.6 | 2.51 | 0.151 | 1.31 | >=7.5 | 1.01 | 0.601
17 | ≤ 0.3 | C[C@H](Cc1nocc1C(F)(F)F)c1cccc(N2Cc3c(cc(C(=O)N4CC[C@H](F)C4)cc3C(F)(F)F)C2=O)c1 | 0.101 | 1.31 | 2.51 | >=1.001 | 1.01 | <=0.05 | 1.01 | 1.01 | 1.01 | 0.601
18 | < 0.1 | Cn1cnnc1[C@@H]1C[C@@H]1c1cccc(N2Cc3c(cc(CN4CC[C@H](F)C4)cc3C(F)(F)F)C2=O)c1 | >=0.201 | 1.51 | >=7.5 | >=1.001 | 2.51 | >=0.201 | 1.31 | >=7.5 | 1.31 | >=1.001
19 | < 0.1 | C[C@H](Cc1nncn1C)c1cccc(N2Cc3c(cc([C@H]4CCCNC4)cc3C(F)(F)F)C2=O)c1 (single isomer, unassigned) | >=0.201 | 1.51 | >=7.5 | >=1.001 | 2.51 | >=0.201 | 1.51 | 5 | 1.31 | 0.801
